Assay results taken from patent US7276512B2, “Benzo[a]pyrano[3,2-h]acridin-7-one compounds” (Les Laboratoires Servier, priority 2003, dated 2007).

Key:
[1] = tested on: HT29 human colon carcinoma; assay: In vitro cytotoxicity, Microculture Tetrazolium Assay, HT29; format: cell-based; details: HT-29, 4 days incubation; read-out: IC50 (concentration which inhibits proliferation of the treated cells by 50%)
Protocol: (§1) Four cell lines were used: • 1 murine leukaemia: L1210, • 1 human epidermoid carcinoma: KB-3-1, • 1 human colon carcinoma: HT29, • 1 human prostate carcinoma: LNCap.
(§2) The cells are cultured in RPMI 1640 complete culture medium containing 10% foetal calf serum, 2 mM glutamine, 50 units/ml of penicillin, 50 μg/ml of streptomycin and 10 mM Hepes, pH=7.4. The cells are distributed on microplates and are exposed to the cytotoxic compounds. The cells are then incubated for 2 days (L1210) or 4 days (human lines). The number of viable cells is then quantified by a colorimetric assay, the Microculture Tetrazolium Assay (Cancer Res. 1987, 47, 939-942). The results are expressed in terms of the IC50 (the concentration of cytotoxic agent which inhibits proliferation of the treated cells by 50%).

[2] = tested on: C38 adenocarcinoma of the colon; assay: Anti-tumour activity with respect to C38 adenocarcinoma of the colon; format: in vivo; details: i.v. on days 12 and 22, s.c. C38 in B6D2F1 mice
Protocol: Anti-Tumour Activity with Respect to C38 Adenocarcinoma of the Colon
Tumour fragments of C38 adenocarcinoma of the colon weighing approximately 30 mg were implanted under the skin of B6D2F1 mice (Iffa Credo, France) on day 0. After growth of the tumour, the mice were divided into control (18 animals) and treated (6 or 7 animals) groups, which were homogeneous with respect to tumour size. The products were administered twice by the i.v. route on days 12 and 22, at their Maximum Tolerated Dose (MTD), MTD/2 and MTD/4.
The tumours were measured twice a week and the tumour volumes were calculated according to the following formula: volume (mm^3)=length (mm)×[…]/2.
The anti-tumour activity is expressed as % T/C: […]
V0 and Vt being the initial volume of the tumour and its volume at measurement time t, respectively.
The optimum dose is the dose giving the lowest T/C value without toxicity (early death or weight loss greater than 20%).

[3] = tested on: L1210 murine leukaemia; assay: In vitro cytotoxicity, Microculture Tetrazolium Assay, L1210; format: cell-based; details: L1210, 2 days incubation; read-out: IC50 (concentration which inhibits proliferation of the treated cells by 50%)
Protocol: as §1, §2

[4] = tested on: KB-3-1 human epidermoid carcinoma; assay: In vitro cytotoxicity, Microculture Tetrazolium Assay, KB-3-1; format: cell-based; details: KB-3-1, 4 days incubation; read-out: IC50 (concentration which inhibits proliferation of the treated cells by 50%)
Protocol: as §1, §2

[5] = tested on: LNCap human prostate carcinoma; assay: In vitro cytotoxicity, Microculture Tetrazolium Assay, LNCap; format: cell-based; details: 4 days incubation, read-out: IC50 (concentration which inhibits proliferation of the treated cells by 50%)
Protocol: as §1, §2

Structure (SMILES) | IC50 [1] | T/C ([2]; optimum dose of 4 mg/kg) | inhibition of the tumour growth ([2]; optimum dose of 4 mg/kg) | IC50 [3] | IC50 [4] | IC50 [5] | T/C ([2]; optimum dose of 100 mg/kg)
COc1cc2c(c3c1c(=O)c1c4ccccc4ccc1n3C)[C@@H](OC(C)=O)[C@@H](OC(C)=O)C(C)(C)O2 (racemic) [Example 5, (±)-cis-1,2-Diacetoxy-6-methoxy-3,3,14-trimethyl-1,2,3,14-tetrahydro-7H-benzo[α]pyrano[3,2-h]-acridin-7-one] | 1180 nM | 5% | 95% | 730 nM | 140 nM | 570 nM | 
COc1cc2c(c3c1c(=O)c1c4ccccc4ccc1n3C)[C@H]1OC(=O)O[C@H]1C(C)(C)O2 (racemic) [Example 6, (±)-cis-7-Methoxy-4,4,15-trimethyl-15,15c-dihydro-4H-benzo[α][1,3]-dioxolo[4′,5′:4,5]pyrano[3,2-h]acridine-2,8[3aH]-dione] |  |  |  | 60 nM | 15 nM |  | 
COc1cc2c(c3c1c(=O)c1ccccc1n3C)C=CC(C)(C)O2 [acronycine, reference compound] |  |  |  |  |  |  | 27%
